Data set [1] in a line: Kinetics of reaction (degradation of Phe with Reb-A, Gluc, Xyl, Suc) in dependence of pH-conditions, HPLC/MS. In kind it is physicochemical. The following applies: for % formation from degraded Reb-A: reaction of Phe and Reb-A. On the procedure:
Quantitative evaluation was performed using external standardization.

The nature of data set [2]: Blind descriptive sensory evaluation by trained tasters of differently prepared Stevia-derived MRPs in beverages and ketchup. It is filed as in vivo. Conditions: added before heating to xylose, phenylalanine and SGA; 150 μl sample per 100 ml. The method, then: Each sample was added at a concentration of 1500 ppm to freshly prepared lemon juice (squeezed lemons diluted 1:5 with tap water) containing 4% sugar.
Each sample was added at a concentration of 1000 ppm to Felix Ketchup no added sugar (31.12.2019 L8352, 11:48).
Before tasting the tasters discussed the upcoming series of samples and tasted samples with the predetermined attributes (sweetness) with varying intensities to find a common description. Four trained tasters blind taste tested independently all samples of a series. They were allowed to re-taste and prepared notes for sensory attributes perceived including the relative intensity.
In the last step the attributes noted were discussed openly to find an acceptable description. In case that more than 1 taster disagreed with the description, the tasting was repeated.
Before tasting the tasters discussed the upcoming series of samples and tasted samples with the predetermined attributes with varying intensities to find commonality for the description. Four trained tasters blind taste tested independently all samples of a series. They were allowed to re-taste and made notes for the sensory attributes perceived including the relative intensity.
In the last step the attributes noted were discussed openly to find an agreeable description. In case that more than 1 taster disagreed with thedescription, the tasting was repeated. […]

The nature of data set [3]: Sensory evaluation of combinations of EPCalin (Thaumatin), GSGs and SGs and NHDC in water. It is filed as in vivo. The following applies: 4.5 ppm Thaumatin (10 ppm EPCalin) and/or 50 ppm GSGs and SGs, NHDC 1-5 ppm. On the procedure: 4.5 ppm Thaumatin (equivalent to 10 ppm EPCalin) were dissolved in water. Increasing amounts of NHDC (1-5 ppm) were added to the solution and the sensory properties were evaluated.
50 ppm (GSGs and SGs) were dissolved in water. Increasing amounts of NHDC (1-5 ppm) were added to the solution and the sensory properties were evaluated.
50 ppm (GSGs and SGs) and 4.5 ppm Thaumatin (equivalent to 10 ppm EPCalin) were dissolved in water. Increasing amounts of NHDC (1-5 ppm) were added to the solution and the sensory properties were evaluated.
Sweetness intensity was rated on 5-point scale

The nature of data set [4]: Assay to test DPPH radical-scavenging activity. Conditions: combinations of amino acids and Reb-A, 100° C., pH 7.8; iron-III reduction and radical scavenging (FIGS. 49, 50). The method, then: 1 mg 1,1-Diphenyl-2-picrylhydrazyl radical (DPPH)/ml ethanol, dilution to assay concentration were prepared in ethanol (40 μg/mL); Calibration samples were prepared with Ascorbic acid in a concentration of 0-10 μg/mL; as a negative control sample, water was used.
Samples in aqueous solution were used as such or diluted with water.
A 0.1 ml sample (or calibration standard) was mixed with 3.9 ml solution of DPPH° (100 μMolar) and reacted while protected from light at room temperature for 30 min. Absorbance was determined at 517 nm against ethanol.
10 mM of amino acid and/or 10 mM sugar were dissolved in 10 ml 0.1 mM KH2PO4-buffer, pH=7.8.
The samples were kept at 100° C. in sealed glass vials (Pyrex 15 ml with screw caps) for 0 (before reaction), 2.5 or 5.0 hours. Thereafter the samples were transferred to an ice water bath and cooled down to room temperature. These samples were diluted 1:10 and used for the test assay for anti-oxidant potential.
(In general: The DPPH test is a chemical assay of radical scavenging.)

SMILES strings stand for the structures. Entries after “also recorded” stand apart in the source; their conditions may differ.

For the compound `C=C1C[C@@]23CC[C@H]4[C@@](C)(CCC[C@@]4(C)C(=O)O)[C@@H]2CC[C@]1(O[C@@H]1O[C@H](CO)[C@@H](O)[C@H](O[C@@H]2O[C@H](CO)[C@@H](O)[C@H](O)[C@H]2O)[C@H]1O[C@@H]1O[C@H](CO)[C@@H](O)[C@H](O)[C@H]1O)C3` [Reb-B], the “% formation from degraded Reb-A” value in data set [1] (pH = 5.5) turned out to be 23.1%; in data set [1] (pH = 7.0) it was 22.7%; in data set [1] (pH = 8.5), 19.1%.
For `OC[C@H]1OC(O)[C@H](O)[C@@H](O)[C@@H]1O` (stereo partly shown) [Glu], the “% degradation” value in data set [1] (reaction of Phe and Gluc, pH = 7.0, 1.0 h, 120° C.) came to 4.6%.
As to `COc1ccc(CCC(=O)c2c(O)cc(O[C@@H]3O[C@H](CO)[C@@H](O)[C@H](O)[C@H]3O[C@@H]3O[C@@H](C)[C@H](O)[C@@H](O)[C@H]3O)cc2O)cc1O` [NHDC, Neohesperidin dihydrochalcone], the “taste profile in Redbull sugar free” value in data set [2] was “improved the mouth-feel and harmony of taste impression yielding a substantially improved taste profile”. In data set [3], the “sweetness, onset, mouth-feel and lingering in words” value is “long lasting lingering; also recorded: boosts the lingering”.
For `C=C1C[C@@]23CC[C@H]4[C@@](C)(CCC[C@@]4(C)C(=O)O[C@@H]4O[C@H](CO)[C@@H](O)[C@H](O)[C@H]4O)[C@@H]2CC[C@]1(O[C@@H]1O[C@H](CO)[C@@H](O)[C@H](O[C@@H]2O[C@H](CO)[C@@H](O)[C@H](O)[C@H]2O)[C@H]1O[C@@H]1O[C@H](CO)[C@@H](O)[C@H](O)[C@H]1O)C3` [Reb-A, Rebaudioside A], the anti-oxidant properties entry in data set [4] is recorded as “substantial anti-oxidant properties”.
